Measurements: patent US20250382261A1 (The Broad Institute, Inc., priority 2021, published 2025)
pIC50: −log10 of the molar value. Converted amounts (≈) assume the structure as drawn.

Tests used:
[1] = in vivo, 1 mg/kg
Description: (§5) Plasma samples were taken from 3 mice per time point (5, 15, 30 min; 1, 2, 4, 6 and 8 h post-dose). An aliquot of 2 μL sample was protein precipitated with 60 μL methanol, the mixture was vortex-mixed well and centrifuged at 13000 rpm for 10 min at 4° C. 2 μL supernatant was injected for LC-MS/MS analysis. The mean plasma concentration and the standard deviation from all 3 animals within each time point were calculated. PK parameters were calculated with a non-compartmental analysis. The mean plasma concentrations from all 3 mice at each time point were used in the calculations.

[2] = tested on: K. pneumoniae (ATCC 43816, expressing pGDP2:mcr-1); assay: Checkerboard potentiation assay with novobiocin, mcr-1 strain; assay type: cell-based; details: mcr-1 expressing K. pneumoniae
[3] = Solubility at pH 7.4; assay type: physicochemical; details: pH 7.4, aqueous buffer, thermodynamic from solid; read-out: Kinetic solubility (μM @ pH 7.4)
Description: Thermodynamic solubility. P35 in solution at pH 7.4 was incubated at ambient temperature overnight with stirring using a vial roller system. The saturation of the solution was determined using HPLC-UV. This assay was performed in duplicate by Cyprotex Ltd.

[4] = In vitro metabolic stability, mouse; assay type: in vitro ADME; details: read-out: In vitro metabolic stability (t1/2, min), mouse
[5] = tested on: K. pneumoniae (ATCC 43816); assay: Checkerboard potentiation assay with novobiocin; assay type: cell-based
Description: (§1) Bacterial strains and culture conditions. The following bacterial strains were used within this study; A. baumannii (ATCC 17978), K. pneumoniae (ATCC 43816), K. pneumoniae (ATCC 43816, expressing pGDP2:mcr-1), P. aeruginosa (PA01). Bacterial growth was in cation-adjusted Mueller-Hinton broth (MHB) at 37° C., and inoculum was prepared according to CLSI protocol (CLSI 2015).
(§2) Potentiation assays. Checkerboard analyses were conducted with each drug serially diluted at eight concentrations to create an 8×8 matrix. At least two biological replicates were done for each combination, and the means were used for FIC calculation. The FIC for each drug was calculated by dividing the concentration of the drug in the presence of codrug in a combination for a well showing <10% growth by the MIC for that drug alone. The FIC index (FICI) is the sum of the two FICs, with an FIC index≤0.5 deemed synergistic.
(§3) To probe the spectrum of activity of the present analogs beyond A. baumannii, their interactions with novobiocin were assessed against the high-priority Gram-negative pathogens Klebsiella pneumoniae and P. aeruginosa (FIG. 5).

[6] = tested on: P. aeruginosa (PA01); assay: Checkerboard potentiation assay with novobiocin; assay type: cell-based
Description: as §1, §2, §3

[7] = In vitro metabolic stability, dog; assay type: in vitro ADME; details: read-out: In vitro metabolic stability (t1/2, min), dog
[8] = Plasma protein binding (equilibrium dialysis); assay type: in vitro ADME
Description: Plasma protein binding. Protein binding of P35 in mouse/rat/dog/human plasma was determined using an equilibrium dialysis method. The fraction of compound unbound to proteins was calculated with LC-MS/MS. This assay was performed in duplicate by Cyprotex Ltd.

[9] = in vivo; details: female, C57BL/6, mouse, in vivo, iv, 1 mg/kg
Description: as §5

[10] = target: T1, CYP3A4 (Homo sapiens, UniProt P08684); assay: P450 inhibition; assay type: in vitro ADME; details: read-out: P450 Inhibition CYP 3A4 (IC50)
T1 construct: Cyprotex Ltd. (contract laboratory that ran the assay)
Description: (§4) P450 inhibition. An 8-point dose-response of P35 (0, 0.1, 0.25, 1, 2.5, 10, 25 μM) was tested against the following cytochrome P450 (CYP) isoforms CYP3A4, CYP2C9, CYP2D6, CYP1A2, and CYP2C19. Reduction in metabolite formation was quantified using LC-MS/MS (with the exception of ethoxyresorufin for CYP1A2) to calculate an IC50 value. This assay was performed by Cyprotex Ltd.

[11] = target: T2, CYP2D6 (Homo sapiens, UniProt P10635); assay: P450 inhibition; assay type: in vitro ADME; details: read-out: P450 Inhibition CYP 2D6 (IC50)
T2 construct: Cyprotex Ltd. (contract laboratory that ran the assay)
Description: as §4

[12] = target: T3, CYP2C19 (Homo sapiens, UniProt P33261); assay: P450 inhibition; assay type: in vitro ADME; details: read-out: P450 Inhibition CYP 2C19 (IC50)
T3 construct: Cyprotex Ltd. (contract laboratory that ran the assay)
Description: as §4

[13] = target: T4, CYP2C9 (Homo sapiens, UniProt P11712); assay: P450 inhibition; assay type: in vitro ADME; details: read-out: P450 Inhibition CYP 2C9 (IC50)
T4 construct: Cyprotex Ltd. (contract laboratory that ran the assay)
Description: as §4

[14] = target: hERG channel (Homo sapiens, UniProt Q12809)
Description: hERG channel assays. All assays were performed by Cyprotex Ltd. using an eCiphrCardio assay. CDI iCell® cardiomyocytes are plated onto fibronectin coated 48 well microelectrode array plates at a density of 50,000 cells per well in 5 μl iCell® plating medium. After 2 h, 300 μl of maintenance medium is added to each well. The plate is incubated for 2 days, and then the medium is completely changed to 500 μl of maintenance medium. The cells are incubated for an additional 3 days until a stable beating phenotype is achieved and the cells are ready for drug treatment. The medium is changed the day before dosing. […] The activity of cells in a 48-well microelectrode array is recorded prior to treatment (baseline) and at 1- and 48-hours post-treatment using the Axion Biosystems Maestro MEA system. The recording conditions are at 37° C. with 5% CO2 using the standard cardiac settings on the Axion Biosystems Maestro Axis software version 2.1. The results are analyzed with the Axion Biosystem software.

[15] = In vitro metabolic stability, rat; assay type: in vitro ADME; details: read-out: In vitro metabolic stability (t1/2, min), rat
[16] = in vitro; details: human

hERG channel, sequence (Q12809 whole entry): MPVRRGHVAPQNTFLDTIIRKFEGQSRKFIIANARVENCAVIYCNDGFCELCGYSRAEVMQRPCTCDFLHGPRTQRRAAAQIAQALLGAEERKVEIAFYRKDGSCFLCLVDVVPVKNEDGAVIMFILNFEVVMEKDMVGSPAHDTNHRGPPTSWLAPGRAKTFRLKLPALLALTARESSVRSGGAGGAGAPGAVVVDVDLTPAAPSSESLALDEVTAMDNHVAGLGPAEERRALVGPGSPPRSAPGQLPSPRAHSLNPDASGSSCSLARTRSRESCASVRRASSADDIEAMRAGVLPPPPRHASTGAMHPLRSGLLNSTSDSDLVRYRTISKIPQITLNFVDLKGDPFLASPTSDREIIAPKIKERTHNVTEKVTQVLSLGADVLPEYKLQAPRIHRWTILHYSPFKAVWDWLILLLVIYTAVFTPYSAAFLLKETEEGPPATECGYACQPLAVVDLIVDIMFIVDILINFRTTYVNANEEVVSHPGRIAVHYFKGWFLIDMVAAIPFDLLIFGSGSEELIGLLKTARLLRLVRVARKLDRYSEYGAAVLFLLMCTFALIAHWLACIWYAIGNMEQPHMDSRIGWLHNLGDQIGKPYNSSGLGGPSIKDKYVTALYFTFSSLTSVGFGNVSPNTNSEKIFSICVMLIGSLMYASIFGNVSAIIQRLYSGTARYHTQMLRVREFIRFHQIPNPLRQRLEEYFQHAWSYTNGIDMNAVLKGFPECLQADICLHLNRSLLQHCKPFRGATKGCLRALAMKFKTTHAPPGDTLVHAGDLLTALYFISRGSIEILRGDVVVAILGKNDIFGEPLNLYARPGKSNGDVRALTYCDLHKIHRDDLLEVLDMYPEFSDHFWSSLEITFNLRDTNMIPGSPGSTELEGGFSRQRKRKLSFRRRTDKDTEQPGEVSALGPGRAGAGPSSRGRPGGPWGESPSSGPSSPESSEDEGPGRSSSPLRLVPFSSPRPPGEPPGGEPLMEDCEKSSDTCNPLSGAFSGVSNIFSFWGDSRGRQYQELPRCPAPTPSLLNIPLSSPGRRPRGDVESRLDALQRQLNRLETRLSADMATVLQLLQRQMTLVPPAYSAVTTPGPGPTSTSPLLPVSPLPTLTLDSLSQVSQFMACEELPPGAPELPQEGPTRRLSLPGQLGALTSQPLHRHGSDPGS
T1 sequence (P08684 whole entry): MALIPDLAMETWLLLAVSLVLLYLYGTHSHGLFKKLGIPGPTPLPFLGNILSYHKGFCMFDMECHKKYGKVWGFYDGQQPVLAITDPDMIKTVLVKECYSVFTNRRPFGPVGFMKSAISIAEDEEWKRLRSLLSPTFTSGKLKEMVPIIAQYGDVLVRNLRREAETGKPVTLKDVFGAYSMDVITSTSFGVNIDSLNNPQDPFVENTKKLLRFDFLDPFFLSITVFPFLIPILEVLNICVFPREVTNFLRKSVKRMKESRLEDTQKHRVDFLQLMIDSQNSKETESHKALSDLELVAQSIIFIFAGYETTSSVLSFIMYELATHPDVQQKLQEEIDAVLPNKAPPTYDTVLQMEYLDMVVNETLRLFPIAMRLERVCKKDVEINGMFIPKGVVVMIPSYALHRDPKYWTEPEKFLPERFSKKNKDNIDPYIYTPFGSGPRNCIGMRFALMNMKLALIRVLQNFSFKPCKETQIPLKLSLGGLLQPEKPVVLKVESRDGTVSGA
T3 sequence (P33261 whole entry): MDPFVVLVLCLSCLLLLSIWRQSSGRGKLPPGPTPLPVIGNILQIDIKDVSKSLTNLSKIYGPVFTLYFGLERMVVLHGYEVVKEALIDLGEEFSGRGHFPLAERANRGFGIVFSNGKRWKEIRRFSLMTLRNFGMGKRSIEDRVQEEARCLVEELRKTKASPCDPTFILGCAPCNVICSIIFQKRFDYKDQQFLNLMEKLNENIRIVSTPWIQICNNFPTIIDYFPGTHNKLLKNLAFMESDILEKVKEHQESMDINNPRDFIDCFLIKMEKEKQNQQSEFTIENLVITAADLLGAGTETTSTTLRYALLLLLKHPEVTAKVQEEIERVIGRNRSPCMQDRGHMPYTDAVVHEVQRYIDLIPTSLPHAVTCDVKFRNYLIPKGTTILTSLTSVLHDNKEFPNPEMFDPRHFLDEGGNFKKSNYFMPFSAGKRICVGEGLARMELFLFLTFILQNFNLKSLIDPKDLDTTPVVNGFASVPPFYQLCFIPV
T2 sequence (P10635 whole entry): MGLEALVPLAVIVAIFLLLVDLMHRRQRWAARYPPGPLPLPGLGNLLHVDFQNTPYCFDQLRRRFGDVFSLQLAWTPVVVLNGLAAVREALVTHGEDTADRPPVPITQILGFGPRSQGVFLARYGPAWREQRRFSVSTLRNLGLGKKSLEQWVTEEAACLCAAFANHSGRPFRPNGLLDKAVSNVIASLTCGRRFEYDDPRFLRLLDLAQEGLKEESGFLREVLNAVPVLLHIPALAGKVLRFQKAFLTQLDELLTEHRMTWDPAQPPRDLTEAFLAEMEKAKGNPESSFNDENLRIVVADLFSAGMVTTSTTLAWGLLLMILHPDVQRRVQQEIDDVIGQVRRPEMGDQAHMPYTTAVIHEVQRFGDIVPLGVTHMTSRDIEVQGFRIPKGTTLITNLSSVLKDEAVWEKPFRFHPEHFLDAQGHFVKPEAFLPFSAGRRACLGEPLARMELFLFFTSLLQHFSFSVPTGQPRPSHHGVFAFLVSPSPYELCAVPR
T4 sequence (P11712 whole entry): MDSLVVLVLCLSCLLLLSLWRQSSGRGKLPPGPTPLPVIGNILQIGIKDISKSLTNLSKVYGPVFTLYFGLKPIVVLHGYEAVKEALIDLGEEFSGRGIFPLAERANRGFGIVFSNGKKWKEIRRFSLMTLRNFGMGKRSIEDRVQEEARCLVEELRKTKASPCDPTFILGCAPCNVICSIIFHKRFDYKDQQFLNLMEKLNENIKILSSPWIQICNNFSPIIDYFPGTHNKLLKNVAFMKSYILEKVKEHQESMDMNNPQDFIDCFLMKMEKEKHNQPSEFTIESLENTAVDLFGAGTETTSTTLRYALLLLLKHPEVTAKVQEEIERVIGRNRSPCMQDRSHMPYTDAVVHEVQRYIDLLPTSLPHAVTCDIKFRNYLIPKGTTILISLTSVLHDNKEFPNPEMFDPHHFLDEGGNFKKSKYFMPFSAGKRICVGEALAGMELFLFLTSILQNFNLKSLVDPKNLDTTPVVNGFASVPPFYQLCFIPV

## N=C(N)c1ccc(OCCN(CCOc2ccc(C(=N)N)cc2)c2ccccc2)cc1 [Analog P35]
[1]; female, C57BL/6, mouse, iv
  AUCExtra (%): 6.74%
  AUMCExtra (%): 37.7%
  Tlast: 8.00 h
[1]; mouse
  Adverse effects after single intravenous dose: no adverse effects
[2]
  FICI with novobiocin against K. pneumoniae expressing mcr-1: 0.12
[3]
  thermodynamic solubility: 182 µM (≈ 76.2 µg/mL)
[4]
  half-life: 91.6 min
[5]
  FICI KP: 0.12
[6]
  FICI PA: 0.3125
[7]
  half-life: 137 min
[8]; dog plasma
  fraction unbound: 0.126
[8]; human plasma
  fraction unbound: 0.13
[8]; mouse plasma
  fraction unbound: 0.169
[8]; rat plasma
  fraction unbound: 0.077
[9]
  AUC(0-inf): 55.3 ng·h/mL
  AUC(0-t): 51.6 ng·h/mL
  C0: 238 ng/mL
  MRT inf: 1.85 h
  MRT last: 1.24 h
  Vd: 33.4 L/kg
  clearance: 301 mL/min/kg
  half-life: 1.61 h
[10]
  pIC50: < 4.30
[11]
  pIC50: 4.83
[12]
  pIC50: < 4.30
[13]
  pIC50: < 4.30
[14]
  Effect on beating at 10 μM: loss of all detectable beating
[14]; human, 1 h
  Direct hERG channel inhibition 1 h after exposure: Neither pentamidine nor P35 directly inhibited the hERG channel
[15]
  half-life: 110 min
[16]; HepG2 viability / cell cycle arrest AC50
  AC50 at 72 h: 14.5 µM
[16]; Nuclear Size AC50 (μM)
  AC50 at 72 h: 94.5 µM
[16]; Phospholipidosis AC50 (μM)
  AC50 at 72 h: 43.1 µM
